Literature values as cited in US20030099599A1, “Antibiotic spray” (priority 2001, published 2003).

Tested on: group A streptococcal tonsillopharyngitis
Conditions: recurrence within 2 months

For penicillin, the “GAS tonsillopharyngitis treated with penicillin that recurs” value is listed as “About 25%”.
